This passage reports IC50 results from patent US20230183237A1, “COMPETITIVE AND NONCOMPETITIVE INHIBITORS OF THE MUSCARINIC ACETYLCHOLINE RECEPTOR M5” (Vanderbilt University, priority 2020, published 2023).

A word on the IC50: it is the midpoint of a concentration-inhibition curve.

For this experiment, the target named is T1, hM5 (Homo sapiens, UniProt P08912).
T1 construct: expressed in transfected cells
T1 sequence (P08912 1-532): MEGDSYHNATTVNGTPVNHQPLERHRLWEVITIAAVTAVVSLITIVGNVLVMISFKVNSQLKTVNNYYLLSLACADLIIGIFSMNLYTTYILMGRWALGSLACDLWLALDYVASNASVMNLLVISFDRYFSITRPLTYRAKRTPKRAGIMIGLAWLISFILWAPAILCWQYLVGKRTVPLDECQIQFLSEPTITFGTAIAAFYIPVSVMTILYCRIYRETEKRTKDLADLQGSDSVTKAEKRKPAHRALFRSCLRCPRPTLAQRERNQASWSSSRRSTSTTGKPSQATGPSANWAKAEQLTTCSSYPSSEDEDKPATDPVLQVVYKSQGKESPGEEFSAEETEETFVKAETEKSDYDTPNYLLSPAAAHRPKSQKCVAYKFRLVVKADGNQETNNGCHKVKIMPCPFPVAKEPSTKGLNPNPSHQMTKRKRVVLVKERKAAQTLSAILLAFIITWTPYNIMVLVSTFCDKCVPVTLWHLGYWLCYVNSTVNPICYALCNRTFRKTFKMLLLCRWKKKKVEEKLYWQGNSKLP
The experiment can be described thus: Calcium mobilization concentration-response (IC50 vs EC80 acetylcholine), CHO hM5. It is filed as cell-based. Conditions: CELL LINE hM5; calcium mobilization, EC80 acetylcholine addition; read-out: IC50. The essentials: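 CHO cells stably expressing hM5, dye-loaded, in HBSS/20 mM HEPES/2.5 mM probenecid, pH 7.4. Compounds were pre-incubated 140 s before an EC80 acetylcholine challenge, with calcium flux read kinetically.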
(Calcium assays in cells follow changes in intracellular calcium, usually with a dye or a luminescent sensor.)
Consider `O=S(=O)(c1cnn2c1OCCC2)N1CCC(c2ccncc2)CC1` [Compound 367, 3-((4-(pyridin-4-yl)piperidin-1-yl)sulfonyl)-6,7-dihydro-5H-pyrazolo[5,1-b][1,3]oxazine], for which the IC50 is above 10000 nM. The same measure for `O=S(=O)(c1cnn2c1CCCC2)N1CCC(c2ccncc2)CC1` [Compound 368, 3-((4-(pyridin-4-yl)piperidin-1-yl)sulfonyl)-4,5,6,7-tetrahydropyrazolo[1,5-a]pyridine]: above 10000 nM. On to `Cc1cc2c(cc1C1CCN(S(=O)(=O)c3cnn(C)c3C)CC1)OCO2` [Compound 371, 1-((1,5-dimethyl-1H-pyrazol-4-yl)sulfonyl)-4-(6-methylbenzo[d][1,3]dioxol-5-yl)piperidine], for which the IC50 is 17 nM. The same measure for `Cc1cc2c(cc1C1CCN(S(=O)(=O)c3cnn(C)c3Cl)CC1)OCO2` [Compound 372, 1-((5-chloro-1-methyl-1H-pyrazol-4-yl)sulfonyl)-4-(6-methylbenzo[d][1,3]dioxol-5-yl)piperidine]: 14 nM; for `Cc1cc2c(cc1C1CCN(S(=O)(=O)c3cnc(C)n3C)CC1)OCO2` [Compound 373, 1-((1,2-dimethyl-1H-imidazol-5-yl)sulfonyl)-4-(6-methylbenzo[d][1,3]dioxol-5-yl)piperidine]: 13 nM; for `Cc1cc2c(cc1C1CCN(S(=O)(=O)c3cnn4c3CCC4)CC1)OCO2` [Compound 374, 3-((4-(6-methylbenzo[d][1,3]dioxol-5-yl)piperidin-1-yl)sulfonyl)-5,6-dihydro-4H-pyrrolo[1,2-b]pyrazole]: 7 nM. In the case of `Cc1cc2c(cc1C1CCN(S(=O)(=O)c3ccc4c(c3)CCO4)CC1)OCO2` [Compound 375, 1-((2,3-dihydrobenzofuran-5-yl)sulfonyl)-4-(6-methylbenzo[d][1,3]dioxol-5-yl)piperidine], the IC50 came to 2060 nM. With `Cc1c(S(=O)(=O)N2CC=C(c3cc4c(cc3Cl)N(C)CCO4)CC2)cnn1C` [Compound 376, 6-chloro-7-(1-((1,5-dimethyl-1H-pyrazol-4-yl)sulfonyl)-1,2,3,6-tetrahydropyridin-4-yl)-4-methyl-3,4-dihydro-2H-benzo[b][1,4]oxazine], the IC50 worked out at 1450 nM. On to `CN1CCOc2cc(C3=CCN(S(=O)(=O)c4cnn(C)c4Cl)CC3)c(Cl)cc21` [Compound 377, 6-chloro-7-(1-((5-chloro-1-methyl-1H-pyrazol-4-yl)sulfonyl)-1,2,3,6-tetrahydropyridin-4-yl)-4-methyl-3,4-dihydro-2H-benzo[b][1,4]oxazine], for which the IC50 was found to be 1430 nM. Under `Cc1c(S(=O)(=O)N2CCC(c3cn4ncnc4cc3OC(F)(F)F)CC2)cnn1C` [Compound 378, 6-(1-((1,5-dimethyl-1H-pyrazol-4-yl)sulfonyl)piperidin-4-yl)-7-(trifluoromethoxyl)-[1,2,4]triazolo[1,5-a]pyridine] stands 8150 nM.

For the compound `Cc1c(S(=O)(=O)N2CC=C(c3cn4ncnc4c(F)c3F)CC2)cnn1C` [Compound 379, 6-(1-((1,5-dimethyl-1H-pyrazol-4-yl)sulfonyl)-1,2,3,6-tetrahydropyridin-4-yl)-7,8-difluoro-[1,2,4]triazolo[1,5-a]pyridine], the IC50 came to 243 nM. The same measure for `Cc1c(C2=CCN(S(=O)(=O)c3cnn(C)c3C)CC2)cn2ncnc2c1Cl` [Compound 380, 8-chloro-6-(1-((1,5-dimethyl-1H-pyrazol-4-yl)sulfonyl)-1,2,3,6-tetrahydropyridin-4-yl)-7-methyl-[1,2,4]triazolo[1,5-a]pyridine]: 37 nM. Regarding `Cc1c(S(=O)(=O)N2CC=C(c3cn4ncnc4c(F)c3Cl)CC2)cnn1C` [Compound 381, 7-chloro-6-(1-((1,5-dimethyl-1H-pyrazol-4-yl)sulfonyl)-1,2,3,6-tetrahydropyridin-4-yl)-8-fluoro-[1,2,4]triazolo[1,5-a]pyridine], the IC50 worked out at 13 nM.

Regarding `Cn1ncc(S(=O)(=O)N2CCC(c3cc(F)c4ncnn4c3)CC2)c1Cl` [Compound 382, 6-(1-((5-chloro-1-methyl-1H-pyrazol-4-yl)sulfonyl)piperidin-4-yl)-8-fluoro-[1,2,4]triazolo[1,5-a]pyridine], the IC50 is 849 nM. For the compound `Cc1ccncc1C1CCN(S(=O)(=O)c2cnn(C)c2Cl)CC1` [Compound 383, 3-(1-((5-chloro-1-methyl-1H-pyrazol-4-yl)sulfonyl)piperidin-4-yl)-4-methylpyridine], the IC50 was determined as 1640 nM.

For `Cc1ccncc1C1CCN(S(=O)(=O)c2cnn(C)c2C)CC1` [Compound 384, 3-(1-((1,5-dimethyl-1H-pyrazol-4-yl)sulfonyl)piperidin-4-yl)-4-methylpyridine], the IC50 worked out at 5760 nM. Regarding `Cc1ccncc1C1CCN(S(=O)(=O)c2cnc(C)n2C)CC1` [Compound 385, 3-(1-((1,2-dimethyl-1H-imidazol-5-yl)sulfonyl)piperidin-4-yl)-4-methylpyridine], the IC50 is above 10000 nM. Under `Cc1ccncc1C1CCN(S(=O)(=O)c2cnn3c2OCCC3)CC1` [Compound 386, 3-((4-(4-methylpyridin-3-yl)piperidin-1-yl)sulfonyl)-6,7-dihydro-5H7-pyrazolo[5,1-b][1,3]oxazine] stands 4620 nM; under `O=S(=O)(c1cnn2c1OCCC2)N1CCC(c2ccc3ncnn3c2)CC1` [Compound 387, 3-((4-([1,2,4]triazolo[1,5-a]pyridin-6-yl)piperidin-1-yl)sulfonyl)-6,7-dihydro-5H-pyrazolo[5,1-b][1,3]oxazine], 113 nM; under `Cc1ccncc1C1CCN(S(=O)(=O)c2cnn3c2CCC3)CC1` [Compound 388, 3-((4-(4-methylpyridin-3-yl)piperidin-1-yl)sulfonyl)-5,6-dihydro-4H-pyrrolo[1,2-b]pyrazole], 822 nM. Under `[2H]C1([2H])Oc2cc(C)c(C3CCN(S(=O)(=O)c4cnn(C)c4C)CC3)cc2OC1([2H])[2H]` [Compound 389, 1-((1,5-dimethyl-1H-pyrazol-4-yl)sulfonyl)-4-(7-methyl-2,3-dihydrobenzo[b][1,4]dioxin-6-yl-2,2,3,3-d4)piperidine] stands 182 nM; under `[2H]C1([2H])Oc2cc(C)c(C3CCN(S(=O)(=O)c4cnn(C)c4Cl)CC3)cc2OC1([2H])[2H]` [Compound 390, 1-((5-chloro-1-methyl-1H-pyrdzol-4-yl)sulfonyl)-4-(7-methyl-2,3-dihydrobenzo[b][1,4]dioxin-6-yl-2,2,3,3-d4)piperidine], 206 nM; under `[2H]C1([2H])Oc2cc(C)c(C3CCN(S(=O)(=O)c4cnc(C)n4C)CC3)cc2OC1([2H])[2H]` [Compound 391, 1-((1,2-dimethyl-1H-imidazol-5-yl)sulfonyl)-4-(7-methyl-2,3-dihydrobenzo[b][1,4]dioxin-6-yl-2,2,3,3-d4)piperidine], 636 nM.

Regarding `[2H]C1([2H])Oc2cc(C)c(C3CCN(S(=O)(=O)c4cnc(C)s4)CC3)cc2OC1([2H])[2H]` [Compound 392, 2-methyl-5-((4-(7-methyl-2,3-dihydrobenzo[b][1,4]dioxin-6-yl-2,2,3,3-d4)piperidin-1-yl)sulfonyl)thiazole], the half-inhibitory concentration (IC50) is above 10000 nM. With `[2H]C1([2H])Oc2cc(C)c(C3CCN(S(=O)(=O)c4cnn5c4OCCC5)CC3)cc2OC1([2H])[2H]` [Compound 393, 3-((4-(7-methyl-2,3-dihydrobenzo[b][1,4]dioxin-6-yl-2,2,3,3-d4)piperidin-1-yl)sulfonyl)-6,7-dihydro-5H-pyrazolo[5,1-b][1,3]oxazine], the IC50 worked out at 86 nM.
